Assay results from patent publication US6900233B2, “Substituted 3-phenyl-5-alkoxy-3H-(1,3,4)-oxadiazol-2-ones, pharmaceutical composition and method for treating obesity thereof” (Aventis Pharma Deutschland GmbH, priority 2002, dated 2005).

System: not given
Assay: not given
Conditions: not given

| SMILES | melting point [°C] |
| --- | --- |
| CC(C)CCC[C@@H](C)[C@H]1CC[C@H]2[C@@H]3CCC4C[C@@H](Oc5nn(-c6ccc(OC(F)(F)F)cc6)c(=O)o5)CC[C@]4(C)[C@H]3CC[C@]12C (some centres unmarked) | 127 |
| CCCCCCCCCCCCCCCCOc1nn(-c2ccc(OC(F)(F)F)cc2)c(=O)o1 [Example 2, 5-Hexadecyloxy-3-(4-trifluoromethoxy-phenyl)-3H-(1,3,4)-oxadiazol-2-one] | 56 |
| CCCCCCCCCCCCCCCCOc1nn(-c2cccc(OC(F)(F)F)c2)c(=O)o1 [Example 4, 5-Hexadecyloxy-3-(3-trifluoromethoxy-phenyl)-3H-(1,3,4)-oxadiazol-2-one] | 53 |
| CCCCCCCCCCCCCCCCOc1nn(-c2ccc(Oc3ccc(Cl)cc3)cc2)c(=O)o1 [Example 5, 5-Hexadecyloxy-3-(4-(4-chlorophenoxy)-phenyl)-3H-(1,3,4)-oxadiazol-2-one] | 52 |
| CCCCCCCCOc1nn(-c2ccccc2)c(=O)o1 [Example 6, 5-Octyloxy-3-phenyl-3H-(1,3,4)-oxadiazol-2-one] | 38 |
| CCCCCCCCCCCCCCCCOc1nn(-c2cccc(F)c2)c(=O)o1 [Example 8, 5-Hexadecyloxy-3-(3-fluoro-phenyl)-3H-(1,3,4)-oxadiazol-2-one] | 58 |
| CCCCCCCCCCCCCCCCOc1nn(-c2cccc(OCc3ccccc3)c2)c(=O)o1 [Example 9, 5-Hexadecyloxy-3-(3-benzyloxy-phenyl)-3H-(1,3,4)-oxadiazol-2-one] | 65 |
| CCCCCCCCCCCCCCCCOc1nn(-c2ccccc2)c(=O)o1 [Example 10, 5-Hexadecyloxy-3-phenyl-3H-(1,3,4)-oxadiazol-2-one] | 63 |
| CCCCCCCCCCCCCCCCOc1nn(-c2ccc([N+](=O)[O-])cc2)c(=O)o1 [Example 11, 5-Hexadecyloxy-3-(4-nitro-phenyl)-3H-(1,3,4)-oxadiazol-2-one] | 72 |
| CCCCCCCCCCCCCCCCOc1nn(-c2ccc(OC)cc2)c(=O)o1 [Example 12, 5-Hexadecyloxy-3-(4-methoxy-phenyl)-3H-(1,3,4)-oxadiazol-2-one] | 66 |
| CCCCCCCCCCCCCCCCOc1nn(-c2ccc(OCc3ccccc3)cc2)c(=O)o1 [Example 13, 5-Hexadecyloxy-3-(4-benzyloxy-phenyl)-3H-(1,3,4)-oxadiazol-2-one] | 73 |
| CCCCCCCCCCCOc1nn(-c2ccc(OC(F)(F)F)cc2)c(=O)o1 [Example 15, 5-Undecyloxy-3-(4-trifluoromethoxy-phenyl)-3H-(1,3,4)-oxadiazol-2-one] | 38 |
| CCCCCCCCCCCCCCOc1nn(-c2ccc(OC(F)(F)F)cc2)c(=O)o1 [Example 16, 5-Tetradecyloxy-3-(4-trifluoromethoxy-phenyl)-3H-(1,3,4)-oxadiazol-2-one] | 46 |
| CCCCCCCCCCCCCOc1nn(-c2ccc(OC(F)(F)F)cc2)c(=O)o1 [Example 17, 5-Tridecyloxy-3-(4-trifluoromethoxy-phenyl)-3H-(1,3,4)-oxadiazol-2-one] | 50 |
| O=c1oc(OCCc2ccc(F)cc2)nn1-c1ccc(OC(F)(F)F)cc1 [Example 21, 5-(2-(4-Fluorophenyl)-ethoxy)-3-(4-trifluoromethoxy-phenyl)-3H-(1,3,4)-oxadiazol-2-one] | 60 |
| CCCCCCCCCCCCCCCCCCCCCCOCCOc1nn(-c2ccc(OC(F)(F)F)cc2)c(=O)o1 [Example 25, 5-(Docosyloxy-ethoxy)-3-(4-trifluoromethoxy-phenyl)-3H-(1,3,4)-oxadiazol-2-one] | 71 |
| CCCCCCCCCCCCOc1nn(-c2ccc(OC(F)(F)F)cc2)c(=O)o1 [Example 29, 5-(Dodecyloxy)-3-(4-trifluoromethoxy-phenyl)-3H-(1,3,4)-oxadiazol-2-one] | 41 |
| CCCCCCCCCCCCOc1nn(-c2ccc(Cl)c(Cl)c2)c(=O)o1 [Example 30, 5-(Dodecyloxy)-3-(3,4-dichloro-phenyl)-3H-(1,3,4)-oxadiazol-2-one] | 74 |
| CCCCCCCCCCCCOc1nn(-c2cc(Cl)cc(Cl)c2)c(=O)o1 [Example 31, 5-(Dodecyloxy)-3-(3,5-dichloro-phenyl)-3H-(1,3,4)-oxadiazol-2-one] | 48 |
| CCCCCCCCCCCCOc1nn(-c2cccc(OC)c2)c(=O)o1 [Example 32, 5-(Dodecyloxy)-3-(3-methoxy-phenyl)-3H-(1,3,4)-oxadiazol-2-one] | 51 |
| CCCCCCCCCCCCOc1nn(-c2ccc(OC)cc2)c(=O)o1 [Example 33, 5-(Dodecyloxy)-3-(4-methoxy-phenyl)-3H-(1,3,4)-oxadiazol-2-one] | 57 |
| CCCCCCCCCCCCOc1nn(-c2cccc([N+](=O)[O-])c2)c(=O)o1 [Example 34, 5-(Dodecyloxy)-3-(3-nitro-phenyl)-3H-(1,3,4)-oxadiazol-2-one] | 64 |
| CCCCCCCCCCCCOc1nn(-c2cccc(C(F)(F)F)c2)c(=O)o1 [Example 35, 5-(Dodecyloxy)-3-(3-trifluoromethyl-phenyl)-3H-(1,3,4)-oxadiazol-2-one] | 43 |
| CCCCCCCCCCCCOc1nn(-c2ccc(OCc3ccccc3)cc2)c(=O)o1 [Example 37, 5-(Dodecyloxy)-3-(4-benzyloxy-phenyl)-3H-(1,3,4)-oxadiazol-2-one] | 65 |
| CCCCCCCCCCCCOc1nn(-c2cccc(F)c2)c(=O)o1 [Example 38, 5-(Dodecyloxy)-3-(3-fluoro-phenyl)-3H-(1,3,4)-oxadiazol-2-one] | 44 |
| CCCCCCCCCCCCOc1nn(-c2ccc([N+](=O)[O-])c(OCc3ccc(F)cc3)c2)c(=O)o1 [Example 39, 5-(Dodecyloxy)-3-(3-(4-fluorobenzyloxy)-4-nitro-phenyl)-3H-(1,3,4)-oxadiazol-2-one] | 71 |
| CCCCCCCCCCCCOc1nn(-c2ccc([N+](=O)[O-])cc2C)c(=O)o1 [Example 40, 5-(Dodecyloxy)-3-(2-methyl-4-nitro-phenyl)-3H-(1,3,4)-oxadiazol-2-one] | 63 |
| CCCCCCCCCCCCOc1nn(-c2ccc([N+](=O)[O-])c(C)c2)c(=O)o1 [Example 41, 5-(Dodecyloxy)-3-(3-methyl-4-nitro-phenyl)-3H-(1,3,4)-oxadiazol-2-one] | 62 |

Target: T1, pancreatic lipase (PL) (Sus scrofa, UniProt P00591)
T1 construct: Enriched preparation from porcine pancreas; purchased Sigma L-0382; host or cells: porcine pancreas (tissue preparation)
T1 sequence (P00591 1-450): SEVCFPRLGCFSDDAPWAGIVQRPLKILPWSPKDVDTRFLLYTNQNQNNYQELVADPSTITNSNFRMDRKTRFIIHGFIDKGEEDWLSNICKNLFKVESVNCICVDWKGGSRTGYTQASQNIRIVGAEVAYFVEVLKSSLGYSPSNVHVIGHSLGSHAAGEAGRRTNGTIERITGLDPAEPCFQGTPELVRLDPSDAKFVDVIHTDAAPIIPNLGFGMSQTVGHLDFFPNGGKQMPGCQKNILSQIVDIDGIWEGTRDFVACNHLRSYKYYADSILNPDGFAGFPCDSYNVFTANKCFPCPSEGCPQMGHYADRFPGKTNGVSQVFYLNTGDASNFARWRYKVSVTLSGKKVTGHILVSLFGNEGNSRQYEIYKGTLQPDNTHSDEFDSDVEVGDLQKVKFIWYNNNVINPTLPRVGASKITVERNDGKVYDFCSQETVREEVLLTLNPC
Assay: Pancreatic lipase enzyme assay (release of radiolabeled oleate from tripalmitin/glycerol tri[3H]oleate substrate)
Format: biochemical
Conditions: enriched preparation from porcine pancreas, 30° C., 30 min, up to 8 concentrations
Description: The effect of the compounds according to the invention of formula 1 was tested using the following enzyme assay system: [lacuna]
The activity of the compounds was assayed as follows:
1. Preparation of the Substrate:
80 μL of tripalmitin (85 mM in chloroform) are mixed with 5 μL of glycerol tri[9,10(n)-^3H]oleate (5 mCi/mL in toluene) in a 12 mL polypropylene vessel. Evaporation in a rotary evaporator (50° C.) and addition of 4 mL of 200 mM Tris/HCl (pH 7.6), 0.8% TX-100 are followed by ultrasound treatment of the mixture (Branson B-12 sonifier, output level 4, 3×2 min with 1 min intervals on ice) until a homogeneous milky suspension is produced.
Lipase buffer: 80 mM Tris/HCl (pH 7.6), 600 mM NaCl, 8 mM CaCl2, 8 mM benzamidine, 2 mM Pefabloc (Roche Biochemicals) (add the inhibitors only on the day of the assay)
Pancreatic lipase: Enriched preparation from porcine pancreas (Sigma order No. L-0382) dissolved in lipase buffer (100 000 units/500 μL)
5 μL of test substance (in 100% DMSO) or DMSO (control) are mixed with 10 μL of substrate and 5 μL of lipase (in this sequence) and incubated at 30° C. (Eppendorf Thermomixer, 350 min^−1) for 30 min. After addition of 325 μL of methanol/chloroform/n-heptane (10/9/7) and 105 μl of 0.1 M K2CO3, 0.1 M H3BO3 (pH 10.5 adjusted with 1 M KOH) and vigorous mixing, the phases are separated by centrifugation (8000 rpm, Eppendorf centrifuge, 4° C.). 140 μL portions of the aqueous supernatant (contains the liberated radiolabeled oleate; 70% recovery) are transferred into 20 mL scintillation vials and mixed with 6 mL of scintillation cocktail (Beckman ReadySafe). After vigorously mixing and incubating at room temperature for 2 h, the radioactivity is measured in a liquid scintillation counter (Beckman, L8008, tritium channel with quench curve, measurement time 20 min).
Substances are routinely tested in each concentration in three independent incubation mixtures each with duplicate determination after phase separation (SD<0.02). Background values (reaction under the same conditions but without lipase) are subtracted from all values (corresponds predominantly to the content of glycerol trioleate or free oleate in the substrate preparation in the aqueous phase, <5% of the radioactivity employed). The inhibition of the pancreatic lipase enzymatic activity by a test substance is determined by comparison with an uninhibited control reaction (presence of lipase=0% inhibition; absence of lipase 100% inhibition in each case after background correction). The IC50 is calculated from an inhibition plot with up to 8 concentrations of the test substance. The software package GRAPHIT (Elsevier-BIOSOFT) is used for curve fitting and IC50 determination.

| SMILES | IC50 [nM] |
| --- | --- |
| CCCCCCCCCCCCOc1nn(-c2ccc(OC(F)(F)F)cc2)c(=O)o1 [Example 1, 5-Dodecyloxy-3-(4-trifluoromethoxy-phenyl)-3H-(1,3,4)-oxadiazol-2-one] | 30 |
| CCCCCCCCCCCCCCCCOc1nn(-c2ccc(OC(F)(F)F)cc2)c(=O)o1 [Example 2, 5-Hexadecyloxy-3-(4-trifluoromethoxy-phenyl)-3H-(1,3,4)-oxadiazol-2-one] | 250 |
| CCCCCCCCOc1nn(-c2ccc(OC(F)(F)F)cc2)c(=O)o1 [Example 3, 5-Octyloxy-3-(4-trifluoromethoxy-phenyl)-3H-(1,3,4)-oxadiazol-2-one] | 350 |
| CCCCCCCCCCCCCCCCOc1nn(-c2cccc(OC(F)(F)F)c2)c(=O)o1 [Example 4, 5-Hexadecyloxy-3-(3-trifluoromethoxy-phenyl)-3H-(1,3,4)-oxadiazol-2-one] | 2500 |
| CCCCCCCCCCCCCCCCOc1nn(-c2ccc(Oc3ccc(Cl)cc3)cc2)c(=O)o1 [Example 5, 5-Hexadecyloxy-3-(4-(4-chlorophenoxy)-phenyl)-3H-(1,3,4)-oxadiazol-2-one] | 2000 |
| CCCCCCCCOc1nn(-c2ccccc2)c(=O)o1 [Example 6, 5-Octyloxy-3-phenyl-3H-(1,3,4)-oxadiazol-2-one] | 900 |
| CCCCCCCCCCCOc1nn(-c2ccc(OC(F)(F)F)cc2)c(=O)o1 [Example 15, 5-Undecyloxy-3-(4-trifluoromethoxy-phenyl)-3H-(1,3,4)-oxadiazol-2-one] | 600 |
